This is an account of results in patent US11548868B2, “Heterocyclic compounds, compositions comprising heterocyclic compound, and methods of use thereof” (JS INNOPHARM (SHANGHAI) LTD, priority 2017, dated 2023).

Structures are written as SMILES.

In experiment [1] the target is T1, TDO2 in A172 cancer cells (Homo sapiens, UniProt P48775).
T1 construct: endogenous in cells; host or cells: A172 cancer cells
In words: TDO2 Cellular Assay (kynurenine production in A172 cancer cells). The class given is cell-based. The settings on record: L-Trp 1 mM, 24 hours incubation, kynurenine at 490 nm. As to the method: A172 cancer cells (3×10^4 per well) in 85 μL DMEM medium containing 10% FBS were seeded in a 96-well plate and incubated at 95% humidity and 5% CO2 at 37° C. for overnight. On the next day, L-Trp solution (10 μL, 1 mM final concentration) and serial dilutions of the test compounds and DMEM medium resulting in a total final volume of 100 μL each well. The test compounds were dissolved in DMSO and successively diluted with pH7.5 butter (with final DMSO concentration of 0.25%) resulting in final concentrations of the test compounds ranging from 0 to 25 μM (0, 2.5, 7.5, 25, 75, 250, 750, 2500, 7500, & 25000 nM). After 24 hours of incubation, 70 uL of the supernatant per well was transferred to a new 96 well plate. 8 μL of trichloroacetic acid (6.1 N) was mixed into each well and incubated at 50° C. for 30 min to hydrolyze N-formylkynurenine to kynurenine. The reaction mixture was then centrifuged for 10 min at 2500 RPM to remove sediments. 50 μL of the supernatant per well was transferred to another 96 well plate and mixed with 50 μL of 2% (w/v) p-dimethylaminobenzaldehyde in acetic acid. The yellow color derived from kynurenine was measured at 490 nm using a microplate reader. Percent inhibition of the test compounds was determined by measuring the decrease in kynurenine as compared to the control of DMSO vehicle, which was calculated by formula of (WC−WT)/WC, where WC is the mean absorbance of the control well minus blank well; WT is the mean absorbance of the test well minus the blank well. Data was analyzed by GraphPad Prism 5 and the IC50 values were obtained by non-linear regression.
(§1) The IC50 values of for Compounds disclosed are listed in Table 2, A′: ≤0.5 μM; B′: >0.5 μM and ≤1 μM; C′: >1.0 μM and ≤5 uM; and D′: >5 μM.

For experiment [2], the target named is T2, IDO1 in Hela cancer cells (Homo sapiens, UniProt P14902).
T2 construct: endogenous in cells; host or cells: Hela cancer cells stimulated with human IFN-γ
T2 sequence (P14902 whole entry): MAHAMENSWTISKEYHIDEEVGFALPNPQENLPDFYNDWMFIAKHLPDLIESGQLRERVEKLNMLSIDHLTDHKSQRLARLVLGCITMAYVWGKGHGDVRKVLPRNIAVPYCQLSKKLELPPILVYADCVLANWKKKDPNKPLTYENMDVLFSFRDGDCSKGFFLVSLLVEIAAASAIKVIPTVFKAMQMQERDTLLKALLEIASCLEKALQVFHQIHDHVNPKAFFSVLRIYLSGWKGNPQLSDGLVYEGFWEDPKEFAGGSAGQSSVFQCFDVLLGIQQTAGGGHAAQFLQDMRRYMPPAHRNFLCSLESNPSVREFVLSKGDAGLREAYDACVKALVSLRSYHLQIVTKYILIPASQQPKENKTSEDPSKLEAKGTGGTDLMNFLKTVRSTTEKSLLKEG
Description: IDO1 Cellular Assay (kynurenine production in IFN-γ stimulated Hela cancer cells). In kind it is cell-based. The following applies: human IFN-γ 50 ng/mL, 48 hours incubation, kynurenine at 490 nm. The protocol: Hela cancer cells (5×10^3 per well) with 85 μL DMEM medium containing 10% FBS were seeded in a 96-well plate and incubated at 95% humidity and 5% CO2 at 37° C. for 24 hours. human IFN-γ (10 μL, 50 ng/mL final concentration) and 5 μL serial dilutions of the test compounds were added into each well. The test compounds were dissolved in DMSO, and successively diluted with pH7.5 buffer (with final DMSO concentration of 0.25%) resulting in final concentrations of the test compounds ranging from 0 to 25 μM (0, 2.5, 7.5, 25, 75, 250, 750, 2500, 7500, & 25000 nM). After 48 hours of incubation, 70 uL of the supernatant per well was transferred to a new 96 well plate. Trichloroacetic acid (6.1 N, 8 μL) was mixed into each well and incubated at 50° C. for 30 min to hydrolyze N-formylkynurenine produced by IDO to kynurenine. The reaction mixture was then centrifuged for 10 min at 2500 RPM to remove sediments. 50 μL of the supernatant per well was transferred to another 96 well plate and mixed with 50 uL of 2% (w/v) p-dimethylaminobenzaldehyde in acetic acid. The yellow color derived from kynurenine was measured at 490 nm using a microplate reader. Percent inhibition of the test compounds was determined by measuring the decrease in kynurenine as compared to the control of DMSO vehicle, which was calculated by formula of (WC-WT)/WC, where WC is the mean absorbance of the control well minus blank well; WT is the mean absorbance of the test well minus the blank well. Data was analyzed by GraphPad Prism 5 and the IC50 values were obtained by non-linear regression.
as §1

T1 sequence (P48775 whole entry): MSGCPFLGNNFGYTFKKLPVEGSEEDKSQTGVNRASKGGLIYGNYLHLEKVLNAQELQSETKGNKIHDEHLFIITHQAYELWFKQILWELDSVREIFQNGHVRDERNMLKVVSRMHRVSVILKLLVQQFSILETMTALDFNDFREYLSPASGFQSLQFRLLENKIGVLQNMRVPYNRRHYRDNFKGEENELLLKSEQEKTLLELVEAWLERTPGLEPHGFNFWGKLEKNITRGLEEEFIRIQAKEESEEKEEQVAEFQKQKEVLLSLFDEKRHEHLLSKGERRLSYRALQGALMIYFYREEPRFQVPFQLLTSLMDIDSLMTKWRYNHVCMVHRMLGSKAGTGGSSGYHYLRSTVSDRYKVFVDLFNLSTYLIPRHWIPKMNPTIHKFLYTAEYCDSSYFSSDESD

In the case of `CC(=O)N1C[C@@H]2CN(c3cc(Cl)cn4cncc34)C[C@@H]2C1(C)C` (racemic) [Example 41, Racemic-1-((3aS,6aR)-5-(6-chloroimidazo[1,5-a]pyridin-8-yl)-1,1-dimethylhexahydropyrrolo[3,4-c]pyrrol-2(1H)-yl)ethanone], the IC50 in experiment [1] is 1 to 5 µM; in experiment [2], greater than 5 µM.

Turning to `CC(=O)N1C[C@@H]2CN(c3cc(Cl)cc4cncn34)C[C@@H]2C1(C)C` (racemic) [Example 43, Racemic-1-((3aS,6aR)-5-(7-chloroimidazo[1,5-a]pyridin-5-yl)-1,1-dimethylhexahydropyrrolo[3,4-c]pyrrol-2(1H)-yl)ethanone], the IC50 in experiment [1] and in experiment [2] was greater than 5 µM each time.

For `CC1(C)[C@H]2CN(c3cc(Cl)cc4cncn34)C[C@H]2CN1S(C)(=O)=O` (racemic) [Example 44, Racemic-7-chloro-5-((3aR,6aS)-4,4-dimethyl-5-(methylsulfonyl)hexahydropyrrolo[3,4-c]pyrrol-2(1H)-yl)imidazo[1,5-a]pyridine], the IC50 in experiment [1] and in experiment [2] was greater than 5 µM in each case.

For `CC(=O)N1C[C@@H]2CN(c3cc(C(F)(F)F)cn4cncc34)C[C@@H]2C1(C)C` (racemic) [Example 45, Racemic-1-((3aS,6aR)-1,1-dimethyl-5-(6-(trifluoromethyl)imidazo[1,5-a]pyridin-8-yl)hexahydropyrrolo[3,4-c]pyrrol-2(1H)-yl)ethanone], the results for the IC50 in experiment [1] and in experiment [2] were 1 to 5 µM and greater than 5 µM, respectively.

In the case of `CC1(C)[C@H]2CN(c3cc(C(F)(F)F)cn4cncc34)C[C@H]2CN1S(C)(=O)=O` (racemic) [Example 46, Racemic-8-((3aR,6aS)-4,4-dimethyl-5-(methylsulfonyl)hexahydropyrrolo[3,4-c]pyrrol-2(1H)-yl)-6-(trifluoromethyl)imidazo[1,5-a]pyridine], the IC50 in experiment [1] is 1 to 5 µM; in experiment [2], greater than 5 µM.

`CC(=O)N1C[C@@H]2CN(c3c(C(F)(F)F)ccc4cncn34)C[C@@H]2C1(C)C` (racemic) [Example 47, Racemic-1-((3aS,6aR)-1,1-dimethyl-5-(6-(trifluoromethyl)imidazo[1,5-a]pyridin-5-yl)hexahydropyrrolo[3,4-c]pyrrol-2(1H)-yl)ethanone]: the IC50 in experiment [1] and in experiment [2] was greater than 5 µM each time.

Regarding `CC1(C)[C@H]2CN(c3c(C(F)(F)F)ccc4cncn34)C[C@H]2CN1S(C)(=O)=O` (racemic) [Example 48, Racemic-5-((3aR,6aS)-4,4-dimethyl-5-(methylsulfonyl)hexahydropyrrolo[3,4-c]pyrrol-2(1H)-yl)-6-(trifluoromethyl)imidazo[1,5-a]pyridine], the IC50 in experiment [1] and in experiment [2] was greater than 5 µM throughout.

For the molecule `CC1(C)[C@H]2CN(c3cc(C(F)(F)F)cc4cncn34)C[C@H]2CN1S(C)(=O)=O` (racemic) [Example 50, Racemic-5-((3aR,6aS)-4,4-dimethyl-5-(methylsulfonyl)hexahydropyrrolo[3,4-c]pyrrol-2(1H)-yl)-7-(trifluoromethyl)imidazo[1,5-a]pyridine], the IC50 in experiment [1] and in experiment [2] was greater than 5 µM throughout.

Take `CC(=O)N1C[C@@H]2CN(c3cc(C(F)(F)F)cc4cncn34)C[C@@H]2C1(C)C` (racemic) [Example 51, Racemic-1-((3aS,6aR)-1,1-dimethyl-5-(7-(trifluoromethyl)imidazo[1,5-a]pyridin-5-yl)hexahydropyrrolo[3,4-c]pyrrol-2(1H)-yl)ethanone]: the IC50 in experiment [1] and in experiment [2] was greater than 5 µM throughout.

With `CC1(C)[C@H]2CN(c3c(C4CC4)ccc4cncn34)C[C@H]2CN1S(C)(=O)=O` (racemic) [Example 55, Racemic-6-cyclopropyl-5-((3aR,6aS)-4,4-dimethyl-5-(methylsulfonyl)hexahydropyrrolo[3,4-c]pyrrol-2(1H)-yl)imidazo[1,5-a]pyridine], the IC50 in experiment [1] and in experiment [2] was greater than 5 µM each time.

One may read the IC50 as the midpoint of a concentration-inhibition curve. A low value points to greater potency.
